From patent publication US9326451B1, “Seed pillow for overcoming the limiting factors controlling rangeland reseeding success” (The United States of America, as represented by the …, priority 2012, dated 2016)

Columns and labels:
[1] = system: cheatgrass (Bromus tectorum L.); experiment: Example 4: cheatgrass control by imazapic, pot study; type: in vivo
From the text: (§1) In this study, bluebunch wheatgrass was either left untreated, coated with activated carbon, or incorporated into a seed-pillow containing activated carbon. Source of activated carbon used in the study was Nuchar® powdered activated carbon (MWV, Richmond, Va.). Seeds were coated with activated carbon according to U.S. Patent application 2010/0093535. Seed pillows were formed by mixing dough containing by weight 22% activated carbon, 18.6% diatomaceous earth, 57.9% SELVOL-205 solution with 1% solids, and 1.2% seed. Pellets were extruded and cut into 3 mm thick hexagon pellets that were 13 mm in diameter, with each pillow containing eight pure live seeds.
(§2) Bluebunch wheatgrass and cheatgrass were sown in 14×14 cm pots at 500 pure live seeds m-2, and 1000 seeds m-2, respectively. After planting, pots were sprayed with 4, 6, 8, or 12 oz/acre of the pre-emergent herbicide imazapic, or left unsprayed. The study was arranged in a randomized block design with 8 replicates per treatment.

cheatgrass = experiment: Example 5: cheatgrass control by imazapic, pot study; type: in vivo, Bromus tectorum; details: 8 oz/acre, pre-emergent spray after planting
From the text: (§3) The following example illustrates the ability of seed pillows to protect seeds from soil-active herbicide and use of beneficial biostimulants and super-absorbent polymer. In the study, treatments included untreated seed and four seed pillow treatments, including seed incorporated into a pillow containing 1) activated carbon, 2) activated carbon plus biostimulants, 3) activated carbon plus super-absorbent polymer, and 4) activated carbon plus biostimulants and super-absorbent polymer. Pellets were extruded and cut into 3 mm thick hexagon pellets that were 13 mm in diameter, with each pillow containing eight pure live seeds.
(§4) Bluebunch wheatgrass and cheatgrass were sown in 14×14 cm pots at 500 pure live seeds m-2, and 1000 seeds m-2, respectively. After planting, half of the pots in the study were sprayed with 8 oz/acre of the pre-emergent herbicide imazapic, or left unsprayed. The study was arranged in a randomized block design with 8 replicates per treatment.

bluebunch wheatgrass [2] = system: bluebunch wheatgrass; parameters: species or system Pseudoroegneria spicata; details: in vivo
From the text: as §1, §2

bluebunch wheatgrass [3] = system: bluebunch wheatgrass; parameters: species or system Pseudoroegneria spicata; details: in vivo; remark: listed apart in the source
From the text: as §3, §4

[4] = system: 'Anatone' bluebunch wheatgrass; details: in vivo
Method: (§5) Soil was obtained from a Wyoming big sagebrush (Artemisia tridentata Nutt. ssp. wyomingensis [Beetle & A. Young] S. L. Welsh)-steppe community type, located at the Northern Great Basin Experimental Range, 16-km southwest of Riley, Oreg. (43° 32′N, 118° 9′ W). Soil on the site has a silt-loam texture and is classified as a fine-loamy, mixed, frigid Aridic Haploxeroll (Soil Survey Staff 2012). Soil was excavated from a maximum depth of 25-cm, with the top 2-cm of soil and litter discarded to remove existing seeds. Excavated soil was used to fill square 14-cm wide by 14-cm deep growing pots that were placed in a grow-room at the Eastern Oregon Agriculture Research Center, located in Burns, Oreg., USA.
Species used in the study included the native bunchgrass ‘Anatone’ bluebunch wheatgrass and the non-native annual weed downy brome. Bluebunch wheatgrass was chosen because it is often a major component of native plant communities in the sage-steppe ecosystem of western North America, is commonly used in rangeland seeding efforts (see e.g., Ogle et al. 2010 Plant guide for bluebunch wheatgrass (Pseudoroegneria spicata). USDA-Natural Resources Conservation Service. Idaho and Washington Plant Materials Program. 5 p). […]

downy brome = experiment: Example 6: downy brome control by imazapic, grow-room pot study; type: in vivo
Method: as §5
Species used in the study included the native bunchgrass ‘Anatone’ bluebunch wheatgrass and the non-native annual weed downy brome. Bluebunch wheatgrass was chosen because it is often a major component of native plant communities in the sage-steppe ecosystem of western North America, is commonly used in rangeland seeding efforts (see e.g., Ogle et al. 2010 Plant guide for bluebunch wheatgrass (Pseudoroegneria spicata). USDA-Natural Resources Conservation Service. Idaho and Washington Plant Materials Program. 5 p). Like many grasses used for restoration, bluebunch wheatgrass is injured by imazapic applied at rates required for downy brome control (see e.g., Shinn and Thill 2004 Weed Technology 18:60-65). Germination potential of bluebunch wheatgrass and downy brome was 92% and 98%, respectively (as tested on blue blotter paper in 130-mm diameter petri dishes, with 25 seeds·dish−1 replicated four times per species).
Bluebunch wheatgrass seeds were untreated, coated with activated carbon, or incorporated into HPPs containing activated carbon. Pots with the sown seeds were sprayed with 0, 70, 105, 140, or 210 g acid equivalent (ae)·ha−1 (0, 4, 6, 8, or 12 oz·acre−1) of the pre-emergent herbicide imazapic (Panoramic 2SL, Alligare LLC, Opelika, Ala.), (3 seed treatments×5 herbicide application rates=15 experimental treatments). The study was arranged in a randomized complete block design with 8 replicates per treatment.
Each pot was seeded with 20 PLS (1000 PLS·m−2) of downy brome, and 10 PLS (500 PLS·m−2) of bluebunch wheatgrass. Two pods were added to each pot designated to receive HPPs. […] Response variables recorded at the conclusion of the study included: 1) plant density, 2) shoot height, and 3) oven dried (65° C. for 72-hrs) aboveground biomass.
Bluebunch wheatgrass and downy brome response data were analyzed separately in SAS (Version 9.3; SAS Institute, Cary, N.C.) using a two-way randomized complete block analysis of variance (ANOVA; Proc Mixed). […] Significance was determined at P<0.05.

[5] = averaged across the study, 47 days

Structure (SMILES): Cc1cnc(C2=NC(=O)C(C)(C(C)C)N2)c(C(=O)O)c1 (centres unmarked) [imazapic]
- control of cheatgrass growth ([1]; all application rates (4, 6, 8, 12 oz/acre)): effectively controlled
- cheatgrass growth (FIG. 3C) ([1]; imazapic at 8 oz/acre, bluebunch seed in activated carbon pillow): suppressed
- cheatgrass growth (FIG. 3B) ([1]; soil treated at 10 oz/acre): growth was arrested
- control of cheatgrass growth (cheatgrass): effectively controlled
- bluebunch wheatgrass growth, untreated seed (FIG. 3B) (bluebunch wheatgrass [2]): growth was arrested
- effect on non-treated bluebunch wheatgrass seed (bluebunch wheatgrass [3]): effectively controlled
- effect on untreated bluebunch wheatgrass [4]: impaired
- control of downy brome (downy brome; all application rates (70, 105, 140, 210 g ae·ha−1)): effectively controlled
- reduction of downy brome biomass (downy brome; [5]): 140.2 fold
- reduction of downy brome density (downy brome; [5]): 6.6 fold
- reduction of downy brome height (downy brome; [5]): 8.0 fold
